From article PMC6149822, “A New Series of Pyrrole-Based Chalcones: Synthesis and Evaluation of Antimicrobial Activity, Cytotoxicity, and Genotoxicity” (Molecules : A Journal of Synthetic Chemistry and Natural …, 2017)
Marks after values point to notes of the source that are not given here.

Assays:
C. glabrata = assay: ATP luminescence microbial cell viability assay; type: cell-based, Candida glabrata; conditions: 24 h treatment, result in words
Procedure: (§1) A model from BioTek Instruments Inc. combined with a BacTiter-Glo^TM Microbial Cell Viability assay (Promega Corp., Madison, WI, USA) was used to provide a sensitive and rapid method for determining the number of viable microbial cells in culture based on quantitation of the ATP present. […] After incubation, cultures were added into the wells (final concentration of bacteria was 5 × 10^5 CFU/mL and 2.5 × 10^6 CFU/mL for yeasts). After adding the BacTiter reagent, incubation time for bacteria and yeasts was 5 min and 15 min, respectively.
(§2) The assay generates a “glow-type” luminescent signal, produced by the luciferase reaction. Briefly, after chemicals and strains were incubated for 24 h, 100 µL of the culture was taken from each well and mixed with the same volume of the BacTiter-Glo™ reagent in a white, opaque-walled microtiter plate. Control wells containing medium without cells were prepared to obtain a value for background luminescence. Cells without compound were used as an ATP-positive control. The microplates were further incubated under agitation for 7 min. Bioluminescence was recorded in a multi-detection microplate reader (BioTek Synergy 2 Multi-Mode Microplate Reader, BioTek Instruments, Winooski, VT, USA). In Figure 3, results were given as percentage of untreated control, which is set at 100%. Experiments were performed in triplicate and each sample was measured in four replicates.

[1] = test system: Salmonella typhimurium TA98; assay: Ames MPF mutagenicity assay; type: cell-based; conditions: for Revertants fold increase (over baseline) TA 98 S9+: with S9; for Revertants fold increase (over baseline) TA 98 S9−: without S9; for Genotoxicity classification (Ames MPF): TA98, with/without metabolic activation, 0.16-5 mg/mL
Procedure: (§3) An Ames MPF 98/100 mutagenicity assay sample kit (Xenometrix AG, Allschwil, Switzerland) was used to evaluate the genotoxicity of compounds 7 and 9 as described previously. Salmonella typhimurium TA98 (frameshift mutations) and TA100 (base-pair substitutions) strains were used and the compounds were tested in concentrations between […] and 5000 μg/mL (5.0, 2.5, 1.25, 0.625, 0.3125, 0.156 mg/mL in DMSO) in accordance with the guidelines. Mutagenity was tested with/without metabolic activation with an Aroclor™-1254 induced male Sprague–Dawley rat liver microsomal enzyme (S9) mix (Xenometrix AG, Allschwil, Switzerland). 2-Nitrofluorene (2.0 μg/mL) and 4-nitroquinoline N-oxide (0.1 μg/mL) were used without S9, and 1.0 μg/mL and 2.5 μg/mL of 2-aminoanthracene solutions were used with S9 against TA98 and TA100 as positive controls, respectively. At the end of each experiment, yellow wells were counted as positive and compared with the negative control. Fold induction over the negative control and fold induction over the baseline were calculated as described: Fold induction over the negative control is the ratio of the mean number of positive wells for the dose concentration divided by the mean number of positive wells for the zero-dose (negative) control. Fold induction over the baseline is the ratio of the mean number of positive wells for the dose concentration divided by the zero-dose baseline. The zero-dose baseline is obtained by adding one standard deviation to the mean number of positive wells of the zero-dose control. If the baseline is less than one, the value is set to one for calculation.
(§4) Genotoxicity was determined according to the previous criteria. For a baseline value of ≤3, significant increases between 2- and 3-fold of the baseline were classified as weak mutagens, and increases ≥3-fold of the baseline were classified as mutagens. For a baseline value of >3, significant increases between 1.5- and 2.5-fold of the baseline were classified as weak mutagens, and increases ≥2.5-fold of the baseline were classified as mutagens. At least two adjacent doses with significant increases, or a significant increase at the highest dose level, should be observed for a mutagenic compound. All of the doses were compared according to Student’s t-test at p < 0.05 for statistical significance.

[2] = test system: Salmonella typhimurium TA100; assay: Ames MPF mutagenicity assay; type: cell-based; conditions: for Revertants fold increase (over baseline) TA 100 S9+: with S9; for Revertants fold increase (over baseline) TA 100 S9−: without S9; for Genotoxicity classification (Ames MPF): TA100, with/without metabolic activation, 0.16-5 mg/mL
Procedure: as §3, §4

C. albicans = assay: ATP luminescence microbial cell viability assay; type: cell-based, Candida albicans; conditions: 24 h treatment, result in words
Procedure: as §1
(§5) The assay generates a “glow-type” luminescent signal, produced by the luciferase reaction. Briefly, after chemicals and strains were incubated for 24 h, 100 µL of the culture was taken from each well and mixed with the same volume of the BacTiter-Glo™ reagent in a white, opaque-walled microtiter plate. Control wells containing medium without cells were prepared to obtain a value for background luminescence. Cells without compound were used as an ATP-positive control. The microplates were further incubated under agitation for 7 min. Bioluminescence was recorded in a multi-detection microplate reader (BioTek Synergy 2 Multi-Mode Microplate Reader, BioTek Instruments, Winooski, VT, USA). […] Experiments were performed in triplicate and each sample was measured in four replicates.

C. krusei = assay: ATP luminescence microbial cell viability assay; type: cell-based, Candida krusei; conditions: 24 h treatment, result in words
Procedure: as §1, §5

E. faecalis (ATCC 29212) = assay: ATP luminescence microbial cell viability assay; type: cell-based, Enterococcus faecalis; conditions: 24 h treatment, result in words
Procedure: as §1, §2

Cn1cccc1C(=O)C=Cc1ccc(-c2ccc(Cl)cc2)o1 [Compound 7, 1-(1-Methyl-1H-pyrrol-2-yl)-3-(5-(4-chlorophenyl)furan-2-yl)prop-2-en-1-one]
antifungal activity in ATP bioluminescence assay (C. glabrata): antifungal activity close to ketoconazole | Revertants fold increase (over baseline) TA 98 S9+ ([1]; 0.16 mg/mL): 0.68 | Revertants fold increase (over baseline) TA 98 S9− ([1]; 0.16 mg/mL): 0.66 | Revertants fold increase (over baseline) TA 98 S9+ ([1]; 0.31 mg/mL): 0.76 | Revertants fold increase (over baseline) TA 98 S9− ([1]; 0.31 mg/mL): 0.33 | Revertants fold increase (over baseline) TA 98 S9+ ([1]; 0.63 mg/mL): 1.01 | Revertants fold increase (over baseline) TA 98 S9− ([1]; 0.63 mg/mL): 0.44 | Revertants fold increase (over baseline) TA 98 S9+ ([1]; 1.25 mg/mL): 0.68 | Revertants fold increase (over baseline) TA 98 S9− ([1]; 1.25 mg/mL): 0.66 | Revertants fold increase (over baseline) TA 98 S9+ ([1]; 2.5 mg/mL): 0.51 | Revertants fold increase (over baseline) TA 98 S9− ([1]; 2.5 mg/mL): 0.33 | Revertants fold increase (over baseline) TA 98 S9+ ([1]; 5 mg/mL): 0.25 | Genotoxicity classification (Ames MPF) [1]: non-genotoxic | Revertants fold increase (over baseline) TA 100 S9+ ([2]; 0.16 mg/mL): 0.56 | Revertants fold increase (over baseline) TA 100 S9− ([2]; 0.16 mg/mL): 0.44 | Revertants fold increase (over baseline) TA 100 S9+ ([2]; 0.31 mg/mL): 0.68 | Revertants fold increase (over baseline) TA 100 S9− ([2]; 0.31 mg/mL): 0.56 | Revertants fold increase (over baseline) TA 100 S9+ ([2]; 0.63 mg/mL): 0.79 | Revertants fold increase (over baseline) TA 100 S9− ([2]; 0.63 mg/mL): 0.67 | Revertants fold increase (over baseline) TA 100 S9+ ([2]; 1.25 mg/mL): 0.62 | Revertants fold increase (over baseline) TA 100 S9− ([2]; 1.25 mg/mL): 0.33 | Revertants fold increase (over baseline) TA 100 S9+ ([2]; 2.5 mg/mL): 0.90 | Revertants fold increase (over baseline) TA 100 S9− ([2]; 2.5 mg/mL): 0.33 | Revertants fold increase (over baseline) TA 100 S9+ ([2]; 5 mg/mL): 0.79 | Revertants fold increase (over baseline) TA 100 S9− ([2]; 5 mg/mL): 0.44 | Genotoxicity classification (Ames MPF) [2]: non-genotoxic | antifungal activity in ATP bioluminescence assay (C. albicans): no statistically significant effects | antifungal activity in ATP bioluminescence assay (C. krusei): more statistically significant antifungal activity against C. krusei than ketoconazole | antimicrobial activity in ATP bioluminescence assay (E. faecalis (ATCC 29212)): sensitive

Cn1cccc1C(=O)C=Cc1ccc(-c2cc(Cl)ccc2Cl)o1 [Compound 9, 1-(1-Methyl-1H-pyrrol-2-yl)-3-(5-(2,5-dichlorophenyl)furan-2-yl)prop-2-en-1-one]
Revertants fold increase (over baseline) TA 98 S9+ ([1]; 0.16 mg/mL): 0.51 | Revertants fold increase (over baseline) TA 98 S9− ([1]; 0.16 mg/mL): 0.89 | Revertants fold increase (over baseline) TA 98 S9+ ([1]; 0.31 mg/mL): 0.79 | Revertants fold increase (over baseline) TA 98 S9− ([1]; 0.31 mg/mL): 0.83 | Revertants fold increase (over baseline) TA 98 S9+ ([1]; 0.63 mg/mL): 0.34 * | Revertants fold increase (over baseline) TA 98 S9− ([1]; 0.63 mg/mL): 0.89 | Revertants fold increase (over baseline) TA 98 S9+ ([1]; 1.25 mg/mL): 0.39 | Revertants fold increase (over baseline) TA 98 S9− ([1]; 1.25 mg/mL): 1.07 | Revertants fold increase (over baseline) TA 98 S9+ ([1]; 2.5 mg/mL): 0.79 | Revertants fold increase (over baseline) TA 98 S9− ([1]; 2.5 mg/mL): 0.24 * | Revertants fold increase (over baseline) TA 98 S9+ ([1]; 5 mg/mL): 0.51 | Revertants fold increase (over baseline) TA 98 S9− ([1]; 5 mg/mL): 0.54 | Genotoxicity classification (Ames MPF) [1]: non-genotoxic | Revertants fold increase (over baseline) TA 100 S9+ ([2]; 0.16 mg/mL): 0.51 | Revertants fold increase (over baseline) TA 100 S9− ([2]; 0.16 mg/mL): 0.48 | Revertants fold increase (over baseline) TA 100 S9+ ([2]; 0.31 mg/mL): 0.73 | Revertants fold increase (over baseline) TA 100 S9− ([2]; 0.31 mg/mL): 0.54 | Revertants fold increase (over baseline) TA 100 S9+ ([2]; 0.63 mg/mL): 0.68 | Revertants fold increase (over baseline) TA 100 S9− ([2]; 0.63 mg/mL): 0.54 | Revertants fold increase (over baseline) TA 100 S9+ ([2]; 1.25 mg/mL): 0.68 | Revertants fold increase (over baseline) TA 100 S9− ([2]; 1.25 mg/mL): 0.54 | Revertants fold increase (over baseline) TA 100 S9+ ([2]; 2.5 mg/mL): 0.79 | Revertants fold increase (over baseline) TA 100 S9− ([2]; 2.5 mg/mL): 0.30 * | Revertants fold increase (over baseline) TA 100 S9+ ([2]; 5 mg/mL): 0.90 | Revertants fold increase (over baseline) TA 100 S9− ([2]; 5 mg/mL): 0.12 * | Genotoxicity classification (Ames MPF) [2]: non-genotoxic | antifungal activity in ATP bioluminescence assay (C. krusei): more statistically significant antifungal activity against C. krusei than ketoconazole
